Measurements as given in ChEMBL document CHEMBL1201862, “PubChem BioAssay data set” (2004).
Values belong to the compound of their own block, whether it stands above or below them. The source made the active and inactive calls.

Key:
cells [1] = assay type: functional, cell-based
cells [2] = assay type: functional, cell-based; remark: listed apart in the source
Cysteine protease ATG4B = molecular target: T1, Cysteine protease ATG4B (Homo sapiens, UniProt Q9Y4P1); assay type: functional;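 also: Fluorescence-based dose-response confirmation assay measuring inhibition of ATG4B activity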
T1 sequence (Q9Y4P1 whole entry): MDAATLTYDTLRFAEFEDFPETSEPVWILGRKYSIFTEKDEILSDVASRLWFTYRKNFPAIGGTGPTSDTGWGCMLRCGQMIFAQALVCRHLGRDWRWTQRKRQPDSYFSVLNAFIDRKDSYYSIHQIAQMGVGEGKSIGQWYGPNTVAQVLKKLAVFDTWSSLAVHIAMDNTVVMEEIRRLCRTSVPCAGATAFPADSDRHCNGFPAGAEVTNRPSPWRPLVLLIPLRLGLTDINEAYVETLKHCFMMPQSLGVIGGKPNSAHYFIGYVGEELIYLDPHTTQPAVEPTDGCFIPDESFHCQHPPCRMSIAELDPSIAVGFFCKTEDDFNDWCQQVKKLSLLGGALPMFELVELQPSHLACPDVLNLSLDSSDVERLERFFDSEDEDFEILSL

Phospholipase A2 = Phospholipase A2 (Homo sapiens, UniProt P04054); assay type: functional;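 also: confirmatory dose-response counterscreen on phospholipase A2, testing hits that came from an ultra-high-throughput screen for ATG4B inhibitors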
Chain of Phospholipase A2 (P04054 whole entry): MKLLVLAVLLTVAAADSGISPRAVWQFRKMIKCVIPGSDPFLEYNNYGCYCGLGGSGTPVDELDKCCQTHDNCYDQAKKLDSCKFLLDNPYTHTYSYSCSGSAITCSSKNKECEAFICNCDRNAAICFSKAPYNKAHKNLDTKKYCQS

[3] = inhibitors of intracellular T. cruzi replication, confirmation, NIH3T3 host cells, beta-gal luminescence (AID 2044); assay type: functional, cell-based;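 also: intracellular parasites grown in NIH/3T3 mouse fibroblasts as host cells; luminescent beta-galactosidase reporter signal from transgenic T. cruzi replicating inside host cells; inhibitors lower the luminescence signal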
Beta-galactosidase [4] = molecular target: T2, Beta-galactosidase (Escherichia coli, UniProt Q8VNN2); assay: beta-galactosidase enzyme inhibitors and activators, dose response, artefact control for CCR6 antagonist project, biochemical, E. coli enzyme, set 3 (AID 504712); assay type: functional
T2 sequence (Q8VNN2 whole entry): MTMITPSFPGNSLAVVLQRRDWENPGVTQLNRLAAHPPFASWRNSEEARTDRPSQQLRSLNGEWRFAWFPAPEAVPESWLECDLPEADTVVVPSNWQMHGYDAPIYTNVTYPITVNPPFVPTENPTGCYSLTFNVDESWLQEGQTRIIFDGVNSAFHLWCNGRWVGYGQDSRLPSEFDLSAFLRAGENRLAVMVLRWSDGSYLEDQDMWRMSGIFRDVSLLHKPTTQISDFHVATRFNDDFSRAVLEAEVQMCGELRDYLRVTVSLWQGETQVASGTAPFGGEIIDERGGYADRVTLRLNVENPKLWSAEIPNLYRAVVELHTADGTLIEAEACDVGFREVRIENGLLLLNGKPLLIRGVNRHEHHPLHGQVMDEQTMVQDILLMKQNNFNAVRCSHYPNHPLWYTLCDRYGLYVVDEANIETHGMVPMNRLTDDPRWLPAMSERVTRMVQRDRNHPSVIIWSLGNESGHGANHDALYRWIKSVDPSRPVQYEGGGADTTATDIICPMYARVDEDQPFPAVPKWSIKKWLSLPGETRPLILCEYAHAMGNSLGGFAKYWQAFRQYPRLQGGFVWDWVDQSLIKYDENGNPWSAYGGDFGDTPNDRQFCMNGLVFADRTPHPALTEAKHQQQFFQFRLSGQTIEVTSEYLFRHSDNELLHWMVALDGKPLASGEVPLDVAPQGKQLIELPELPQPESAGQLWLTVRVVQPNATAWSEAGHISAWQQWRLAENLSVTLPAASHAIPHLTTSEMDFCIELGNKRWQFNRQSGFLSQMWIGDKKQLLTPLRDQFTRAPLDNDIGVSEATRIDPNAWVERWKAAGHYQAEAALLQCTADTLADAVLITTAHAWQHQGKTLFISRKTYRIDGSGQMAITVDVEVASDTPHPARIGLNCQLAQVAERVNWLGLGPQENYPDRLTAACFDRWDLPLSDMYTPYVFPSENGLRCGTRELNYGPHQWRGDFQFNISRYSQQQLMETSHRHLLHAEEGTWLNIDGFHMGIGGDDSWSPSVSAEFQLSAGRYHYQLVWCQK

Protein skinhead-1 = molecular target: T3, Protein skinhead-1 (Caenorhabditis elegans, UniProt P34707); assay type: functional
T3 sequence (P34707 whole entry): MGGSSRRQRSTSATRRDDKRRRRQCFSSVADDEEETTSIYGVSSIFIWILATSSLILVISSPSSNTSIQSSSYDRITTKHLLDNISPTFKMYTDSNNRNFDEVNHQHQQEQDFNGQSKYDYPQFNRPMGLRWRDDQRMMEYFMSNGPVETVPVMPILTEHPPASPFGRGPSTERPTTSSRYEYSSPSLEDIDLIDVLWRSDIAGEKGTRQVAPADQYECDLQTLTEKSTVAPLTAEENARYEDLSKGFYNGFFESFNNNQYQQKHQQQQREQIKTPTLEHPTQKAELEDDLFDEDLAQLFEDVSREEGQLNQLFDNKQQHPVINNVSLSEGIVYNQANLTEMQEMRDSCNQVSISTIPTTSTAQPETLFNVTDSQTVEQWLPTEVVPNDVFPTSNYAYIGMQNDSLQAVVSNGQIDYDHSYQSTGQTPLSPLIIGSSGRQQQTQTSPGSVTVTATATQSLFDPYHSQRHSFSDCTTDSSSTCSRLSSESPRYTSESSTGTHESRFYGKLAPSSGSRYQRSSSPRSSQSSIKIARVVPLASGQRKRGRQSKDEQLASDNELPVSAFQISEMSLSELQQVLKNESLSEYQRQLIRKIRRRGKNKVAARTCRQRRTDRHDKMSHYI

[5] = cytotoxicity toward NIH3T3 fibroblasts, dose response, counter-screen, cell-based, ATP luminescence, mouse fibroblasts (AID 2010); assay type: functional;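 also: cells exposed to compound for about 90 hours before reading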
[6] = molecular target: NAD-dependent protein deacylase sirtuin-5, mitochondrial (Homo sapiens, UniProt Q9NXA8); assay: SIRT5 desuccinylase inhibitors, dose response, biochemical, fluorescence imaging, cherry-pick, set 5 (AID 720591);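 also: desuccinylation of succinyl peptide AMC substrate read as fluorescence after trypsin release; potency of inhibitors that lower fluorescence and may act on trypsin instead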
Chain of NAD-dependent protein deacylase sirtuin-5, mitochondrial (Q9NXA8 whole entry): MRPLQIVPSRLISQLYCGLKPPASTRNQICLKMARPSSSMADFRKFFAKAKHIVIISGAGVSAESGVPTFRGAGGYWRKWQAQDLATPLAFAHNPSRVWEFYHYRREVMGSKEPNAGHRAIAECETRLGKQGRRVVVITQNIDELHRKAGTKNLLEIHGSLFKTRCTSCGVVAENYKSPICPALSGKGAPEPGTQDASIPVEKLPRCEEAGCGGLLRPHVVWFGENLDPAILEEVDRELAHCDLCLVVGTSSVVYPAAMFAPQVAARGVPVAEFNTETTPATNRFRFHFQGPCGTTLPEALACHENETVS

[7] = cytotoxicity in HEK-293T cells, dose response, cytotoxicity control for TCR NF-kB inhibitor project, luminescence, T-cell screen hits (AID 489026); assay type: functional, cell-based;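 also: cells exposed to compound about 14 hours before the viability readout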
[8] = control 3'UTR Renilla luciferase suppression, dose response, counter-screen for Shn3 inhibitor project, cell-based, Clone20-Shn3RL, cherry-picked (AID 624133); assay type: functional
Protein Wnt-3a = Protein Wnt-3a (Mus musculus, UniProt P27467); assay: Wnt3a-driven reporter signaling inhibition, dose response, selectivity assay for Gli-SUFU antagonist project, Wnt-LIGHT cells, luminescence (AID 651570); assay type: functional; conditions: read-out: IC50_Mean;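 also: Wnt-LIGHT reporter cells stimulated with conditioned medium from Wnt3a-producing cells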
Chain of Protein Wnt-3a (P27467 whole entry): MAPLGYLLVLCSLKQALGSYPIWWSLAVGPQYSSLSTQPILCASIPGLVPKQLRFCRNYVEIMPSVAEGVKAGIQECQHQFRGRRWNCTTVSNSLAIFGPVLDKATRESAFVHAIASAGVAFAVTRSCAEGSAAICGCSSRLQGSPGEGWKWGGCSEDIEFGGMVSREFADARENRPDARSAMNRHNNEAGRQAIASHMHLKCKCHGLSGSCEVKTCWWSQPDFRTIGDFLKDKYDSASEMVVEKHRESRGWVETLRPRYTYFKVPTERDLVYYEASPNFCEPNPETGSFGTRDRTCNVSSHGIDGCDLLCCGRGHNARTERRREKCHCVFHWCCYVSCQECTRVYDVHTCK

INS1 = assay: beta cell apoptosis inhibitors, cytokine rescue, dose response, luminescence, retest (AID 449756); assay type: functional, cell-based; conditions: Rattus norvegicus;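 also: cell death triggered by IL-1 beta plus TNF-alpha plus IFN-gamma mixture; protective hits raise ATP signal compared with cytokine alone wells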
[9] = HepG2 cell cytotoxicity, dose response, cytotoxicity control for Shn3 inhibitor project, CellTiter-Glo, cherry-picked (AID 624134); assay type: functional, cell-based
[10] = Shn3 3'UTR reporter inhibitors, dose response, cell-based, Clone20 osteoblasts, firefly luciferase, cherry-picked (AID 624132); assay type: functional;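 also: firefly luciferase luminescence from reporter carrying the Shn3 3'UTR in osteoblasts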
Prothrombin = Prothrombin (Homo sapiens, UniProt P00734); assay: Thrombin 1536 HTS Dose Response Confirmation. [Related pubchem assays: 1046 (Thrombin 1536 HTS; hits were confirmed in this assay)]; assay type: functional
Coagulation factor XII = molecular target: T4, Coagulation factor XII (Homo sapiens, UniProt P00748); assay type: functional;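 also: activated factor XIIa alpha cleaving a fluorogenic AMC peptide substrate; inhibitor potency from loss of enzyme activity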
T4 sequence (P00748 whole entry): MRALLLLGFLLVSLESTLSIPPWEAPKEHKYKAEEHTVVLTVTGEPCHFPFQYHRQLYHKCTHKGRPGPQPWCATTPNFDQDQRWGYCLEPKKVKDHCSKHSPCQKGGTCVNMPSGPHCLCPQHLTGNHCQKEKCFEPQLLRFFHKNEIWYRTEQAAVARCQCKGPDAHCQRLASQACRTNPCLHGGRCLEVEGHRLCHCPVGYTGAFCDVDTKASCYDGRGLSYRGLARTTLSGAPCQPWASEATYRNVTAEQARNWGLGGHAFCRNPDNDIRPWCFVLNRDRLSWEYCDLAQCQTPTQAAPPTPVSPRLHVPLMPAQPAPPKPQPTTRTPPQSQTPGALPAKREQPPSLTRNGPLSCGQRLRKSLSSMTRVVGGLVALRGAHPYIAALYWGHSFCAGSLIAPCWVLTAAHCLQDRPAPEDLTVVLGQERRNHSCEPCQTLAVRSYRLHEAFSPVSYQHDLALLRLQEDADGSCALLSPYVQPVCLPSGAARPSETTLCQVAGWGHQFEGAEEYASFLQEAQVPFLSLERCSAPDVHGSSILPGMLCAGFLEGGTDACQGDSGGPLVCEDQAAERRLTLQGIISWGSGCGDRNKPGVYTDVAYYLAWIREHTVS

[11] = molecular target: G-protein coupled receptor 55 (Homo sapiens, UniProt Q9Y2T6); assay: GPR55 antagonists blocking LPI-driven arrestin recruitment, primary screen, imaging, U2OS, beta-arrestin-GFP, LPI agonist (AID 2013); assay type: functional;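 also: antagonist potency measured as reduced agonist-driven arrestin aggregation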
Chain of G-protein coupled receptor 55 (Q9Y2T6 whole entry): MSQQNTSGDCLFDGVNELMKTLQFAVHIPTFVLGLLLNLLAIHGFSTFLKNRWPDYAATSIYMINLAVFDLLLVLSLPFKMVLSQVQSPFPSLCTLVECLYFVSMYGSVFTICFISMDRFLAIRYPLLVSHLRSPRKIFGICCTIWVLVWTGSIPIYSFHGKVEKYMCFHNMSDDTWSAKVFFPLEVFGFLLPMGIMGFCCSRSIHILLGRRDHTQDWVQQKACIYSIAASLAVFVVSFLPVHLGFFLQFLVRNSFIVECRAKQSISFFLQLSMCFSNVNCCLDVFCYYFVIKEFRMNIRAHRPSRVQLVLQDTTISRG

[12] = molecular target: T5, Microphthalmia-associated transcription factor (Homo sapiens, UniProt O75030); assay: TRPM1 promoter luciferase signal decrease, dose response, MITF inhibitor project, cell-based, SK-MEL-5, cherry-picked, set 3 (AID 493073); assay type: functional
T5 sequence (O75030 whole entry): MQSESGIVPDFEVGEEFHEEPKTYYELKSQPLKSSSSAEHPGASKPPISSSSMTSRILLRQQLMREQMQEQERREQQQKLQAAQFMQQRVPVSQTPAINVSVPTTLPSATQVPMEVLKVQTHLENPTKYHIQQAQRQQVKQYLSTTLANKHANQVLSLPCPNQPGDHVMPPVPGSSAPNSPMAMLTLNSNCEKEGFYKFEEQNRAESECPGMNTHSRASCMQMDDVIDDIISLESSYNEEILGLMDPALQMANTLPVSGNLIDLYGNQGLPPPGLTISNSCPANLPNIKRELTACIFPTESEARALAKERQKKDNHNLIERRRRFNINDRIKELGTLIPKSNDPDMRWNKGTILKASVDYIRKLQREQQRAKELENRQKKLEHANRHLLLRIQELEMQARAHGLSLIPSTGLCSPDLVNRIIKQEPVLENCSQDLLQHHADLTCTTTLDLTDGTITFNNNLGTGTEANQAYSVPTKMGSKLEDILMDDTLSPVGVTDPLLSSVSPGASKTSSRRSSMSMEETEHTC

[13] = growth suppression of PTEN-null colon cells, dose response, cell-based, HCT116 PTEN knockout (AID 1047); assay type: functional;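 also: HCT116 colon tumor cells with PTEN knocked out; cells exposed to compound for 60 hours before readout; potency for loss of cell viability measured by luminescence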
Genome polyprotein = Genome polyprotein (dengue virus type 2, UniProt P29990); assay: Dengue-2 NS5 methyltransferase inhibitors, primary screen, biochemical, confirmation dose response (AID 588689); assay type: functional
Chain of Genome polyprotein (P29990 2492-3391 limits assumed): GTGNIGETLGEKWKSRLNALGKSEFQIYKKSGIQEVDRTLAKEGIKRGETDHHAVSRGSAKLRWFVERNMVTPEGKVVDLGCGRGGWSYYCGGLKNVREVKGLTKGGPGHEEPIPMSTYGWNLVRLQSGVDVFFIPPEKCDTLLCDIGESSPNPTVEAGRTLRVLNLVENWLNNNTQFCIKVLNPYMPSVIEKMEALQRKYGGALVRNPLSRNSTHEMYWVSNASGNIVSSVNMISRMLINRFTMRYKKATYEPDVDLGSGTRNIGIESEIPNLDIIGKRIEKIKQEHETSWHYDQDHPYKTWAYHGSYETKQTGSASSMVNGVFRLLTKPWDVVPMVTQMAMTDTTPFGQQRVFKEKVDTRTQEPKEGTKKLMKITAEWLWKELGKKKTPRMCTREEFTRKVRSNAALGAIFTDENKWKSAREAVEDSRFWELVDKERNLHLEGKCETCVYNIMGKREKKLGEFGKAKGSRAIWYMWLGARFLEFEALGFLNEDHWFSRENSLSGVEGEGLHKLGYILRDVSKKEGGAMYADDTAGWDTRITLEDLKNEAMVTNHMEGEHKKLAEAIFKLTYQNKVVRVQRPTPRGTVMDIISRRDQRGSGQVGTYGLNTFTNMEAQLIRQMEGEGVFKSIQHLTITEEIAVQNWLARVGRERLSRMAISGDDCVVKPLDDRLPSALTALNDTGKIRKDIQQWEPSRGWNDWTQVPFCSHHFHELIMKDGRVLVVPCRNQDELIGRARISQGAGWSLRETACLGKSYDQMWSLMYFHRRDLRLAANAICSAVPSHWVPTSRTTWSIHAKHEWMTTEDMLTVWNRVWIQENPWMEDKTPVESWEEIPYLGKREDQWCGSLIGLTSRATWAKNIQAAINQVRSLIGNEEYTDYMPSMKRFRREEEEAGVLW

[14] = molecular target: Glucose-6-phosphate 1-dehydrogenase (Homo sapiens, UniProt P11413); assay: human G6PD enzyme inhibitors, dose response, selectivity assay for P. falciparum G6PD inhibitor project, biochemical, fluorescence (AID 504792); assay type: functional
Chain of Glucose-6-phosphate 1-dehydrogenase (P11413 whole entry): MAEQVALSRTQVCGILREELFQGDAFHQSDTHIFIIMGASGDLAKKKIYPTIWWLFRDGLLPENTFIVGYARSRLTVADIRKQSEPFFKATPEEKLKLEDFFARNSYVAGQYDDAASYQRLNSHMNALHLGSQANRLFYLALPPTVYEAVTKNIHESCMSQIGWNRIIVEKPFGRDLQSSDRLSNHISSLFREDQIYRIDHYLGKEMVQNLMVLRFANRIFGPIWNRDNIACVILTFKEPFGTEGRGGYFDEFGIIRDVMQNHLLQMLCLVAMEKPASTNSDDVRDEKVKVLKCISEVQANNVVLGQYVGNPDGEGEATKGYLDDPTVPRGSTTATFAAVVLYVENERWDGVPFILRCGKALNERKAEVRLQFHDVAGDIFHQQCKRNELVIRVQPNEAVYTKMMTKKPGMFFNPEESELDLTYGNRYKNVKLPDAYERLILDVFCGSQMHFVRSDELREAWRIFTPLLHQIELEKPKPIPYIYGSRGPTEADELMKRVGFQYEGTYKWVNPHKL

Beta-galactosidase [15] = molecular target: T2, Beta-galactosidase; assay: PubChem AID 485352; assay type: functional
[16] = molecular target: T6, Type-1 angiotensin II receptor (Homo sapiens, UniProt P30556); assay: AT1 receptor antagonists, dose response, selectivity assay for APJ receptor antagonist project, cell-based, uHTS hits (AID 463214); assay type: functional;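 also: antagonist potency against angiotensin II stimulated AT1 response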
T6 sequence (P30556 whole entry): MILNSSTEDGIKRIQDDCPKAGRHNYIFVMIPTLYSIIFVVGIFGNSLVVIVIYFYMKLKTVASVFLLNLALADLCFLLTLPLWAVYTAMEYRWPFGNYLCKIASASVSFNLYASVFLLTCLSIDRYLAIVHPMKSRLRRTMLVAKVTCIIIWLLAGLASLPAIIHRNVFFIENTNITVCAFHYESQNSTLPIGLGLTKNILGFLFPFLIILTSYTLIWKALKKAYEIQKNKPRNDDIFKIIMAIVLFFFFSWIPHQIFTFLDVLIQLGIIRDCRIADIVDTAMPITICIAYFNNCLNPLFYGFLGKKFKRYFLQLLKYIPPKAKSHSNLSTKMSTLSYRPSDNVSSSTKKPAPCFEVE

[17] = inhibitors of clade B AD8 Env fusion, dose response, cell-based, cherry-pick (AID 652062); assay type: functional;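 also: luciferase signal from cell-cell fusion driven by HIV-1 clade B AD8 Env; potency is for inhibitors of fusion seen as a drop in luminescence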
[18] = growth suppression of beta-catenin-knockout colon cells, dose response, cell-based, HCT116, human colon tumor (AID 1045); assay type: functional;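 also: HCT116 colon tumor cells with beta catenin knocked out; cells exposed to compound for 60 hours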

SMILES: Oc1nc(Nc2ccccc2)nc(N2CCCC2)n1
- EC50 (cells [1]): > 29.9 µM (inactive)
- IC50 (cells [2]): > 29.9 µM (inactive)

- IC50 (Cysteine protease ATG4B): 25.4 µM (inactive)
- IC50 (Phospholipase A2): 12.2 µM (active)
SMILES: FC(F)(F)Oc1ccc(NC(S)=NCc2ccccc2)cc1

SMILES: O=[N+]([O-])c1ccc(/C=C/C2=NN(c3ccccc3)C(c3ccco3)C2)o1 (centres undefined)
- EC50 [3]: 0.427 µM (active)
- IC50 (Beta-galactosidase [4]): 41 µM (inactive)
- IC50 (Protein skinhead-1): > 100 µM (inactive)
- EC50 [5]: 18.5 µM (active)

- AC50 [6]: > 30 µM (inactive)
SMILES: Cc1c(-c2ccc(OCCN3CCOCC3)cc2)c(=O)oc2ccc3ccccc3c12

SMILES: COc1cccc(CN(C)C(=O)c2cc(COc3ccc4ncccc4c3)on2)c1
- IC50 [7]: 59.9 µM (inactive)
- AC50 [8]: 2.1 µM (active)
- IC50 (Protein Wnt-3a): 1.02 µM (active)
- AC50 (INS1): 5.13 µM (active)
- AC50 [9]: 3.93 µM (active)
- AC50 [10]: 1.49 µM (active)

- IC50 (Prothrombin): > 50 µM (not active)
- IC50 (Coagulation factor XII): > 50 µM (inactive)
SMILES: Cc1cc(C(=O)Nc2nc(C)c(C(=O)N(C)C)s2)ccc1[N+](=O)[O-]

SMILES: Cc1c(C(C)C)c(=O)n(-c2ccc(S(=O)(=O)NC3CCCCC3)cc2)n1C
- AC50 [8]: 1.76 µM (active)
- IC50 (Protein Wnt-3a): 2.91 µM (active)
- AC50 [9]: 3.93 µM (active)
- AC50 [10]: 1.06 µM (active)

- IC50 [11]: 0.509 µM (active)
SMILES: CN(C)c1ccnc(N(Cc2ccccc2)Cc2ccccc2)c1C#N

SMILES: COC(=O)c1ccc(/C=C(\C#N)C(=O)NC(C)c2ccccc2)cc1 (centres undefined)
- AC50 [12]: 10.7 µM (active)
- EC50 [13]: 47.1 µM (active)

SMILES: O=C(O)/C=C/C(=O)NCc1csc2ccccc12
- EC50 (cells [1]): > 29.9 µM (inactive)
- IC50 (cells [2]): > 29.9 µM (inactive)

SMILES: O=C(O)c1ccc(/C=C2\SC(=S)N(Nc3ccccc3)C2=O)cc1
- IC50 (Genome polyprotein): 58 µM (active)
- AC50 (INS1): 3.85 µM (active)
- IC50 (Coagulation factor XII): > 50 µM (inactive)

SMILES: Cc1ccccc1-n1c(-c2ccc3ccccc3n2)n[nH]c1=S
- IC50 [14]: > 80 µM (inactive)

- AC50 [12]: 1.74 µM (active)
SMILES: CC[n+]1c(C=C2C=CN(C)C=C2)ccc2cc(C)ccc21

- EC50 (Beta-galactosidase [15]): > 40 µM (inactive)
- IC50 [16]: 35.3 µM (not active)
SMILES: CC1=NN(C(N)=S)C(=O)C1N=Nc1ccc([N+](=O)[O-])cc1 (centres undefined)

- IC50 (Coagulation factor XII): > 50 µM (inactive)
SMILES: CN(C)/C=C/c1c(C#N)c(=O)ncn1Cc1ccccc1

- IC50 [11]: 2.3 µM (active)
SMILES: CC(C)C[C@H](NC(=O)c1[nH]cnc1C(=O)NCc1ccc(CNC(=O)OC(C)(C)C)cc1)C(=O)OCc1ccccc1

SMILES: O=C(c1cccc(S(=O)(=O)N2CCN(c3ccccc3)CC2)c1)N1CCCC(C(F)(F)F)C1 (centres undefined)
- AC50 [8]: 0.475 µM (active)
- IC50 (Protein Wnt-3a): 41.8 µM (inactive)
- AC50 [9]: 37.3 µM (active)
- AC50 [17]: 6.01 µM (active)
- AC50 [10]: 2.68 µM (active)

SMILES: COc1ccc(C(C)=O)cc1CSc1nc2ccccc2c(=O)n1-c1cccc(C)c1
- EC50 [13]: 28.9 µM (active)
- IC50 (Cysteine protease ATG4B): 0.502 µM (active)
- IC50 (Phospholipase A2): 0.321 µM (active)
- EC50 [18]: 29.1 µM (active)
